Consider eleven compounds from PubChem BioAssay AID2060504 (Molecular Pharmacology Branch, DTP, NCI, 2025).

Structures are written as SMILES. pIC50: −log10 of the molar value. Values joined by “and” are separate entries in the source; they are usually repeats but may differ in a detail not shown here. Equal values may be shown once.

The test deals with 636577-100-R-J1-PDC complex spheroid viability. Nature of the test: Anticancer human tumor 636577-100-R-J1-PDC patient-derived endometrial adenocarcinoma cell line growth inhibition [GQUAD]. The settings on record: for viability, T/C: stronger effect = lower value; for pIC50: curve of compound. From the text: DNA G-quadruplex Stabilizer Agents in Combinations in Complex Spheroids
A high-throughput screen of multi-cell type tumor spheroids was designed to identify active combinations of DNA G-quadruplex stabilizer agents and targeted small molecules. Complex spheroids include a stromal component modeled by human endothelial cells (HUVEC) and fibroblasts modeled by human mesenchymal stem cells (MSCs). The concentration ranges selected for each drug and investigational agent were based upon clinically achievable concentrations if the clinical Cmax of the agent was known.
Compounds. The drugs and investigational agents: pidnarulex (CX-5461; NSC782164), APTO-253 (NSC789042), BRACO-19 (NSC847499), peposertib (NSC802822), ceralasertib (NSC780249), elimusertib (NSC800525), camonsertib (NSC841442), AZD-1390 (NSC803789), olaparib (NSC753686), talazoparib (NSC767125), ART-558 (NSC835418), sotorasib (NSC818433), MRTX-1133 (NSC836407), SN-38 (NSC673596), topotecan (NSC609699), etoposide (NSC141540), doxorubicin (NSC123127), gemcitabine (NSC613327), 5-fluorouracil (NSC19893), paclitaxel (NSC125973), vemurafenib (NSC761431), panobinostat (NSC761190), R-306465 (JNJ-16241199; NSC773264), adavosertib (NSC754352), TP-3654 (NSC805149), carboplatin (NSC241240), KSQ-4279 (NSC840948), and staurosporine (NSC755774) were obtained from the National Cancer Institute (NCI) Developmental Therapeutics Program Chemical Repository (34). The FDA-approved anticancer drug set is available from the NCI Developmental Therapeutics Program. […] The stock solutions were prepared in dimethyl sulfoxide (DMSO, Sigma-Aldrich, St. Louis, MO, cat. D2650) at 800-fold the tested concentration and stored at -70 degrees C prior to their use. All drugs and investigational agents were tested over a range starting from a high concentration at or near the clinical Cmax and decreasing in half-log increments. If the clinical Cmax for an agent had not been determined, the highest concentration tested was 10 microM.
2.3 Cell Culture. All cells were maintained in an incubator at 37 degrees C and 5% CO2 with 95% humidity. The PDC lines were cultured according to standard operating procedures established by the NCI PDMR. All PDCs were thawed and cultured in Matrigel-coated flasks prepared with a working solution of 1X Ham's F-12 nutrient mix, without supplementation (Invitrogen, cat. 11765054), 100 U/mL penicillin-streptomycin (Invitrogen, cat. 15140122), and 2.5% Matrigel (Corning Inc., cat. 354248) for the first three passages. The 857933-349-R-J2-PDC line was cultured in 6C/Colon 1B media, which includes advanced DMEM/F-12 (Thermo Fisher Scientific, cat. 12634028), 10 mM HEPES (Thermo Fisher Scientific, cat. 15630080), 1X GlutaMAX supplement (Thermo Fisher Scientific, cat. 35050061), 0.1 mg/mL primocin (InvivoGen, cat. ant-pm-2), 10% defined fetal bovine serum, heat inactivated (HyClone Laboratories Inc., cat. SH30070.03HI), 50% L-WRN conditioned media (ATCC, cat. CRL-3276), 1.25 mM N-Acetyl-L-cysteine (Sigma-Aldrich, cat. A9165), 10 mM nicotinamide (Sigma-Aldrich, cat. N0636), 1X B-27 supplement (Thermo Fisher Scientific, cat. 17504044), 1X N-2 supplement (Thermo Fisher Scientific, cat. 17502048), 10 microM Y-27632 dihydrochloride (Tocris Bioscience, cat. 1254), and 50 ng/mL human EGF recombinant protein (Thermo Fisher Scientific, cat. PHG0311). The 485176-168-R4-J1-PDC line was cultured in Panc media, which includes all 6C/Colon 1B media components plus 100 ng/mL human FGF-10 (Thermo Fisher Scientific, cat. 100-26), 500 nM SB-431542 (Selleckchem, cat. S1067), and gastrin (Tocris, cat. 3006).
[…]
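Further: viability read after seven days of drug exposure.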
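Wherever viability, T/C is given: luminescence signal used as a proxy for viable cells; 100% = DMSO vehicle control wells.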

Take `CN(C)c1ccc(Nc2c3ccc(NC(=O)CCN4CCCC4)cc3nc3cc(NC(=O)CCN4CCCC4)ccc23)cc1`: the viability, T/C (compound 0.0316 µM) is 104% [middle of 12 runs]; the viability, T/C (compound 1 µM) is 82.9% [middle of 12 runs]; the viability, T/C (compound 3.16 µM) was 40.7% [middle of 12 runs]; the viability, T/C (compound 10 µM) is 6.05% [middle of 12 runs]. For the setting “compound alone, run of 03/26/2024”, the half-maximal inhibitory concentration (IC50) is 2.41 µM [middle of 11 runs].
`COc1cc(C2c3cc4c(cc3C(OC3OC5COC(C)OC5C(O)C3O)C3COC(=O)C23)OCO4)cc(OC)c1O` (centres undefined): the pIC50 is 7.09 and 7.12 and 7.19. The viability, T/C (compound 0.0316 µM) was 80.7% and 81.6% and 73.5%. Also, the viability, T/C (compound 0.1 µM) was 43.7% and 40.4% and 34.9%. Besides, the viability, T/C (compound 0.316 µM) is 24.3% and 21.7% and 21.6%. In addition, the viability, T/C (compound 1 µM) was 18.6% and 19% and 17.9%. Further, the viability, T/C (compound 3.16 µM) is 15.4% and 13.9% and 16.5%. For the same compound, the viability, T/C (compound 10 µM) was 13% and 12.7% and 13.3%.
In the case of `COc1ccc([C@@H](O)c2cc(-c3ncnc4cc(N5CCOCC5)ccc34)c(F)cc2Cl)nn1`, the negative logarithm of the IC50 (pIC50) is 5.80 and 5.71 and 5.93. The viability, T/C (compound 0.0316 µM) was 93% and 95.4% and 33.8%. In addition, the viability, T/C (compound 0.1 µM) was 96.2% and 61.9% and 97.4%. Further, the viability, T/C (compound 0.316 µM) is 86.4% and 88.9% and 65.4%. For the same compound, the viability, T/C (compound 1 µM) is 55.2% and 54.6% and 49.7%. Also, the viability, T/C (compound 3.16 µM) is 42.5% and 43.1% and 36.6%. Also, under “compound 10 µM”, the viability, T/C is 28.1% and 22.5% and 25.5%.
For the compound `COc1cccc2c1C(=O)c1c(O)c3c(c(O)c1C2=O)CC(O)(C(=O)CO)CC3OC1CC(N)C(O)C(C)O1` (centres undefined), the negative logarithm of the IC50 (pIC50) is > 7.50. Moreover, the viability, T/C (compound 0.0316 µM) is 28.9% and 27% and 34.2%. Further, under “compound 0.1 µM”, the viability, T/C was 18.4% and 18.1% and 16.8%. Also, under “compound 0.316 µM”, the viability, T/C is 15.4% and 13.9% and 14.7%. Under “compound 1 µM”, the viability, T/C is 7.51% and 9.99% and 11.6%. The viability, T/C (compound 3.16 µM) was 0.17% and 0.21% and 0.44%. Moreover, under “compound 10 µM”, the viability, T/C was 0.53% and 0.32% and 0.4%.
As to `Cc1[nH]c2ccccc2c1CCNCc1ccc(/C=C/C(=O)NO)cc1`, the negative logarithm of the IC50 (pIC50) was 8.33 and 8.36 and 7.98. Moreover, the viability, T/C (compound 0.000999 µM) is 80% and 86.3% and 79%. For the same compound, the viability, T/C (compound 0.00316 µM) was 57.6% and 53.8% and 75.6%. Also, for the setting “compound 0.00999 µM”, the viability, T/C is 34.1% and 38.9% and 51.3%. Besides, the viability, T/C (compound 0.0316 µM) was 15.3% and 17.2% and 16.4%. Further, where the note is “compound 0.0999 µM”, the viability, T/C is 6.66% and 8% and 7.02%. Moreover, the viability, T/C (compound 0.316 µM) is 9.32% and 8.7% and 9.38%.
Take `Cc1cccc(N(C)C(=O)C2C(O)CCN2c2nc(C)cc(C(F)(F)F)c2C#N)c1` (centres undefined): the negative-log IC50 (pIC50) is < 5.00 and 5.03. For the same compound, for the setting “compound 0.0316 µM”, the viability, T/C is 55.9% and 99.9% and 91.4%. The viability, T/C (compound 0.1 µM) was 87% and 96.7% and 33.3%. The viability, T/C (compound 0.316 µM) is 95.6% and 94.5% and 96%. Moreover, the viability, T/C (compound 1 µM) is 75.2% and 81.8% and 94.4%. Besides, the viability, T/C (compound 3.16 µM) is 76% and 84.7% and 55.7%. Besides, the viability, T/C (compound 10 µM) is 74.4% and 87.5% and 49.5%.
Regarding `Cc1cnc(CNC(=O)c2c(=O)c3ccc(N4CCCN(C)CC4)nc3n3c2sc2ccccc23)cn1`, the viability, T/C reads like this: (compound 0.0316 µM) 50.9% [middle of 10 runs]; (compound 0.1 µM) 29.8% [middle of 10 runs]; (compound 0.316 µM) 26.9% [middle of 10 runs]; (compound 1 µM) 24.9% [middle of 10 runs]; (compound 3.16 µM) 22.2% [middle of 10 runs]; (compound 10 µM) 20.8% [middle of 10 runs].
For `Cn1ncnc1[C@H]1c2n[nH]c(=O)c3cc(F)cc(c23)N[C@@H]1c1ccc(F)cc1`, the negative logarithm of the IC50 (pIC50) is 7.08 and 7.25 and 7.13. Further, for the setting “compound 0.000999 µM”, the viability, T/C is 116% and 71.8% and 77.3%. In addition, the viability, T/C (compound 0.00316 µM) was 99% and 81.1% and 72.7%. Besides, where the note is “compound 0.00999 µM”, the viability, T/C is 94.9% and 91.4% and 85.6%. The viability, T/C (compound 0.0316 µM) was 69.3% and 56% and 68.8%. In addition, the viability, T/C (compound 0.0999 µM) was 44.9% and 52.2% and 43.4%. For the same compound, under “compound 0.316 µM”, the viability, T/C was 29.7% and 35.6% and 29.1%.
Consider `Nc1ccn(C2OC(CO)C(O)C2(F)F)c(=O)n1` (centres undefined), for which the pIC50 was > 7.50. Also, where the note is “compound 0.0316 µM”, the viability, T/C is 15% and 15.2%. Also, the viability, T/C (compound 0.1 µM) is 14.2% and 11.3%. Moreover, under “compound 0.316 µM”, the viability, T/C was 17.7% and 13.5%. The viability, T/C (compound 1 µM) is 16.3% and 13.1%. For the setting “compound 3.16 µM”, the viability, T/C was 13.8% and 14.3%. The viability, T/C (compound 10 µM) was 14.2% and 11%.
With `O=C(c1cc(Cc2n[nH]c(=O)c3ccccc23)ccc1F)N1CCN(C(=O)C2CC2)CC1`, the pIC50 is 5.60 and 5.61. Under “compound 0.0316 µM”, the viability, T/C was 91.1% and 68.5%. In addition, the viability, T/C (compound 0.1 µM) is 89.5% and 65.9%. Where the note is “compound 0.316 µM”, the viability, T/C was 96.8% and 82.5%. Further, the viability, T/C (compound 1 µM) was 62.5% and 63.3%. The viability, T/C (compound 3.16 µM) is 56.2% and 45.9%. Under “compound 10 µM”, the viability, T/C is 37.6% and 29%.
In the case of `O=c1[nH]cc(F)c(=O)[nH]1`, the negative-log IC50 (pIC50) is 5.60 and 5.25. Under “compound 0.0316 µM”, the viability, T/C was 102% and 99.7%. Besides, the viability, T/C (compound 0.1 µM) was 85% and 68.9%. Where the note is “compound 0.316 µM”, the viability, T/C was 101% and 89.5%. Moreover, the viability, T/C (compound 1 µM) is 76.2% and 91.4%. Also, the viability, T/C (compound 3.16 µM) is 44.2% and 71%. Moreover, the viability, T/C (compound 10 µM) was 24.7% and 28.6%.
